Assays:
Type in all cases: in vivo
[1] = tested on: Plutella xylostella (Diamond Back Moth); assay: Example B4: Plutella xylostella (diamond back moth), artificial diet, eggs, 24-well; conditions: 192 h, application rate of 200 ppm, 8 days after infestation, eggs, read-out: control in at least one of the two categories (mortality or growth inhibition)
Experimental: 24-well microtiter plates with artificial diet were treated with aqueous test solutions prepared from 10′000 ppm DMSO stock solutions by pipetting. After drying, Plutella eggs were pipetted through a plastic stencil onto a gel blotting paper and the plate was closed with it. The samples were assessed for mortality and growth inhibition in comparison to untreated samples 8 days after infestation.

[2] = tested on: Chilo suppressalis (Striped Rice Stemborer); assay: Example B3: Chilo suppressalis (striped rice stemborer), artificial diet, L2 larvae; conditions: 144 h, application rate of 200 ppm, 6 days after infestation, L2 larvae, read-out: control in at least one of the three categories (mortality, anti-feedant effect, or growth inhibition)
Method in brief: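 Diet-incorporation surface assay: aqueous dilutions of 10'000 ppm DMSO stock applied to artificial diet, dried; 6-8 L2 larvae/well; read day 6 post-infestation for mortality, antifeedant effect, growth inhibition vs untreated. Active if any category above untreated.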

[3] = tested on: Diabrotica Balteata (Corn Root Worm); assay: Example B1: Diabrotica balteata (corn root worm), maize sprouts sprayed, L2 larvae; conditions: 96 h, application rate of 200 ppm, 4 days after infestation, L2 larvae, read-out: control in at least one of the two categories (mortality or growth inhibition)
Method in brief: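 Maize sprouts on agar were sprayed with aqueous test solutions made from 10′000 ppm DMSO stocks, dried, then infested with 6 to 10 L2 larvae per well. Mortality and growth inhibition were scored against untreated samples 4 days after infestation.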

[4] = tested on: Myzus persicae (Green Peach Aphid); assay: Example B6: Myzus persicae (green peach aphid) intrinsic activity, sucrose solution; conditions: 120 h, test rate of 12 ppm, 5 days after infestation, intrinsic activity, read-out: mortality
Experimental: Test compounds prepared from 10′000 ppm DMSO stock solutions were applied by pipette into 24-well microtiter plates and mixed with sucrose solution. The plates were closed with a stretched Parafilm. A plastic stencil with 24 holes was placed onto the plate and infested pea seedlings were placed directly on the Parafilm. The infested plate was closed with a gel blotting paper and another plastic stencil and then turned upside down. The samples were assessed for mortality 5 days after infestation.

[5] = tested on: Spodoptera littoralis (Egyptian Cotton Leaf Worm); assay: Example B7: Spodoptera littoralis (Egyptian cotton leaf worm), cotton leaf discs sprayed, L1 larvae; conditions: foliar, 72 h, application rate of 200 ppm, 3 days after infestation, L1 larvae, read-out: control in at least one of the three categories (mortality, anti-feedant effect, or growth inhibition)
Method in brief: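 Leaf discs on agar sprayed with aqueous dilutions of 10′000 ppm DMSO stocks, dried, then infested with five L1 larvae. Mortality, anti-feeding and growth inhibition scored versus untreated 3 days after infestation; control given when any category exceeds untreated.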

CC(Nc1ncnc2c(OC(F)(F)F)cc(Br)cc12)c1nccnc1-c1ncccn1 (stereo not shown) [P.11, 6-bromo-N-[1-(3-pyrimidin-2-ylpyrazin-2-yl)ethyl]-8-(trifluoromethoxy)quina-zolin-4-amine]
≥ 80%: percent control (mortality or growth inhibition) at 200 ppm [1] | percent control (mortality, anti-feedant effect or growth inhibition) at 200 ppm [2] | percent control (mortality or growth inhibition) at 200 ppm [3] | mortality at 12 ppm [4] | percent control (mortality, anti-feedant effect or growth inhibition) at 200 ppm [5]

CC(Nc1ncnc2c(Br)cc(OC(F)(F)F)cc12)c1nccnc1-c1ncccn1 (stereo not shown) [P.12, 8-bromo-N-[1-(3-pyrimidin-2-ylpyrazin-2-yl)ethyl]-6-(trifluoromethoxy)quina-zolin-4-amine]
≥ 80%: percent control (mortality or growth inhibition) at 200 ppm [1] | percent control (mortality, anti-feedant effect or growth inhibition) at 200 ppm [2] | percent control (mortality or growth inhibition) at 200 ppm [3] | mortality at 12 ppm [4] | percent control (mortality, anti-feedant effect or growth inhibition) at 200 ppm [5]

C[C@H](Nc1ncnc2c(Cl)cc(C(F)(F)F)cc12)c1ncnn1-c1ncccn1 [P.18, 8-chloro-N-[(1S)-1-(2-pyrimidin-2-yl-1,2,4-triazol-3-yl)ethyl]-6-(trifluoromethyl)quinazolin-4-amine]
≥ 80%: percent control (mortality or growth inhibition) at 200 ppm [1] | percent control (mortality, anti-feedant effect or growth inhibition) at 200 ppm [2] | percent control (mortality or growth inhibition) at 200 ppm [3] | mortality at 12 ppm [4] | percent control (mortality, anti-feedant effect or growth inhibition) at 200 ppm [5]

C[C@H](Nc1ncnc2c(C(F)(F)F)cc(Cl)cc12)c1ncnn1-c1ccc(C#N)cn1 [P.22, 6-[5-[(1S)-1-[[6-chloro-8-(trifluoromethyl)quinazolin-4-yl]amino]ethyl]-1,2,4-triazol-1-yl]pyridine-3-carbonitrile]
≥ 80%: percent control (mortality or growth inhibition) at 200 ppm [1] | percent control (mortality, anti-feedant effect or growth inhibition) at 200 ppm [2] | percent control (mortality or growth inhibition) at 200 ppm [3] | mortality at 12 ppm [4] | percent control (mortality, anti-feedant effect or growth inhibition) at 200 ppm [5]

CC(Nc1ncnc2c(Br)cc(Br)cc12)c1ncnn1-c1ncccn1 (stereo not shown) [P.29, 6,8-dibromo-N-[1-(2-pyrimidin-2-yl-1,2,4-triazol-3-yl)ethyl]quinazolin-4-amine]
≥ 80%: percent control (mortality or growth inhibition) at 200 ppm [1] | percent control (mortality, anti-feedant effect or growth inhibition) at 200 ppm [2] | percent control (mortality or growth inhibition) at 200 ppm [3] | mortality at 12 ppm [4] | percent control (mortality, anti-feedant effect or growth inhibition) at 200 ppm [5]

CC(Nc1ncnc2c(OC(F)F)cc(Br)cc12)c1nccnc1-c1ncccn1 (stereo not shown) [P.32, 6-bromo-8-(difluoromethoxy)-N-[1-(3-pyrimidin-2-ylpyrazin-2-yl)ethyl]quinazolin-4-amine]
≥ 80%: percent control (mortality or growth inhibition) at 200 ppm [1] | percent control (mortality, anti-feedant effect or growth inhibition) at 200 ppm [2] | percent control (mortality or growth inhibition) at 200 ppm [3] | mortality at 12 ppm [4] | percent control (mortality, anti-feedant effect or growth inhibition) at 200 ppm [5]

CC(Nc1ncnc2c(C(F)(F)F)cc(Br)cc12)c1ncnn1-c1ncccn1 (stereo not shown) [P.44, 6-bromo-N-[1-(2-pyrimidin-2-yl-1,2,4-triazol-3-yl)ethyl]-8-(trifluoromethyl)quinazolin-4-amine]
≥ 80%: percent control (mortality or growth inhibition) at 200 ppm [1] | percent control (mortality, anti-feedant effect or growth inhibition) at 200 ppm [2] | percent control (mortality or growth inhibition) at 200 ppm [3] | mortality at 12 ppm [4] | percent control (mortality, anti-feedant effect or growth inhibition) at 200 ppm [5]

C[C@@H](c1ncnn1-c1ncccn1)N(C)c1ccnc2c(C(F)(F)F)cc(C(F)(F)F)cc12 [P.88, N-methyl-N-[(1S)-1-(2-pyrimidin-2-yl-1,2,4-triazol-3-yl)ethyl]-6,8-bis(trifluoromethyl)quino-lin-4-amine]
≥ 80%: percent control (mortality or growth inhibition) at 200 ppm [1] | percent control (mortality, anti-feedant effect or growth inhibition) at 200 ppm [2] | percent control (mortality or growth inhibition) at 200 ppm [3] | mortality at 12 ppm [4]

C[C@@H](c1ncnn1-c1ncccn1)N(C)c1ncnc2c(Cl)cc(OC(F)F)cc12 [P.91, 8-chloro-6-(difluoromethoxy)-N-methyl-N-[(1S)-1-(2-pyrimidin-2-yl-1,2,4-triazol-3-yl)ethyl]quinazolin-4-amine]
≥ 80%: percent control (mortality or growth inhibition) at 200 ppm [1] | percent control (mortality, anti-feedant effect or growth inhibition) at 200 ppm [2] | percent control (mortality or growth inhibition) at 200 ppm [3] | mortality at 12 ppm [4]

CC(c1nccnc1-c1ncccn1)N(C)c1ncnc2c(C(F)(F)F)cc(Br)cc12 (stereo not shown) [P.98, 6-bromo-N-methyl-N-[1-(3-pyrimidin-2-ylpyrazin-2-yl)ethyl]-8-(trifluoromethyl)quinazolin-4-amine]
≥ 80%: percent control (mortality or growth inhibition) at 200 ppm [1] | percent control (mortality, anti-feedant effect or growth inhibition) at 200 ppm [2] | percent control (mortality or growth inhibition) at 200 ppm [3] | mortality at 12 ppm [4] | percent control (mortality, anti-feedant effect or growth inhibition) at 200 ppm [5]

CC(c1nccnc1-c1ncccn1)N(C)c1ncnc2c(C(F)(F)F)cc(Cl)cc12 (stereo not shown) [P.132, 6-chloro-N-methyl-N-[1-(3-pyrimidin-2-ylpyrazin-2-yl)ethyl]-8-(trifluoromethyl)quinazolin-4-amine]
≥ 80%: percent control (mortality or growth inhibition) at 200 ppm [1] | percent control (mortality, anti-feedant effect or growth inhibition) at 200 ppm [2] | percent control (mortality or growth inhibition) at 200 ppm [3] | mortality at 12 ppm [4] | percent control (mortality, anti-feedant effect or growth inhibition) at 200 ppm [5]

CC(Nc1ncnc2c(C(F)(F)F)cc(Br)cc12)c1nccnc1-c1ncccn1 (stereo not shown) [P.133, 6-bromo-N-[1-(3-pyrimidin-2-ylpyrazin-2-yl)ethyl]-8-(trifluoromethyl)quinazolin-4-amine]
≥ 80%: percent control (mortality or growth inhibition) at 200 ppm [1] | percent control (mortality, anti-feedant effect or growth inhibition) at 200 ppm [2] | percent control (mortality or growth inhibition) at 200 ppm [3] | mortality at 12 ppm [4] | percent control (mortality, anti-feedant effect or growth inhibition) at 200 ppm [5]

CC(c1nccnc1-c1ncccn1)N(C)c1ncnc2c(Br)cc(Cl)cc12 (stereo not shown) [P.182, 8-bromo-6-chloro-N-methyl-N-[1-(3-pyrimidin-2-ylpyrazin-2-yl)ethyl]quinazolin-4-amine]
≥ 80%: percent control (mortality or growth inhibition) at 200 ppm [1] | percent control (mortality or growth inhibition) at 200 ppm [3] | mortality at 12 ppm [4] | percent control (mortality, anti-feedant effect or growth inhibition) at 200 ppm [5]

C[C@H](Nc1ccnc2c(C(F)(F)F)cc(Br)cc12)c1ncnn1-c1ncccn1 [P.253, 6-bromo-N-[(1S)-1-(2-pyrimidin-2-yl-1,2,4-triazol-3-yl)ethyl]-8-(trifluoromethyl)quinolin-4-amine]
≥ 80%: percent control (mortality or growth inhibition) at 200 ppm [1] | percent control (mortality, anti-feedant effect or growth inhibition) at 200 ppm [2] | percent control (mortality or growth inhibition) at 200 ppm [3] | percent control (mortality, anti-feedant effect or growth inhibition) at 200 ppm [5]

C[C@@H](c1ncnn1-c1ncccn1)N(C)c1ccnc2c(Br)cc(C(F)(F)F)cc12 [P.255, 8-bromo-N-methyl-N-[(1S)-1-(2-pyrimidn-2-yl-1,2,4-triazol-3-yl)ethyl]-6-(trifluoromethyl)quinolin-4-amine]
≥ 80%: percent control (mortality or growth inhibition) at 200 ppm [1] | percent control (mortality, anti-feedant effect or growth inhibition) at 200 ppm [2] | percent control (mortality or growth inhibition) at 200 ppm [3] | percent control (mortality, anti-feedant effect or growth inhibition) at 200 ppm [5]

CC(c1ncnn1-c1ccc(C#N)cn1)N(C)c1ncnc2c(Br)cc(Br)cc12 (stereo not shown) [P.257, 6-[5-[1-[(6,8-dibromoquinazolin-4-yl)-methyl-amino]ethyl]-1,2,4-triazol-1-yl]pyridin-3-carbonitrile]
≥ 80%: percent control (mortality or growth inhibition) at 200 ppm [1] | percent control (mortality, anti-feedant effect or growth inhibition) at 200 ppm [2] | percent control (mortality or growth inhibition) at 200 ppm [3] | percent control (mortality, anti-feedant effect or growth inhibition) at 200 ppm [5]

CC(c1nccnc1-c1ccc(OC(F)F)cn1)N(C)c1ncnc2c(C(F)(F)F)cc(Br)cc12 (stereo not shown) [P.273, 6-bromo-N-[1-[3-[5-(difluoromethoxy)-2-pyridyl]pyrazin-2-yl]ethyl]-N-methyl-8-(trifluoromethyl)quinazolin-4-amine]
≥ 80%: percent control (mortality or growth inhibition) at 200 ppm [1] | percent control (mortality, anti-feedant effect or growth inhibition) at 200 ppm [2] | percent control (mortality or growth inhibition) at 200 ppm [3] | percent control (mortality, anti-feedant effect or growth inhibition) at 200 ppm [5]

CC(Nc1ncnc2c(Cl)cc(C(F)(F)F)cc12)c1ncnn1-c1ccc(F)cn1 (stereo not shown) [P.274, 8-chloro-N-[1-[2-(5-fluroo-2-pyridyl)-1,2,4-triazol-3-yl]ethyl]-6-(trifluoromethyl)quinazolin-4-amine]
≥ 80%: percent control (mortality or growth inhibition) at 200 ppm [1] | percent control (mortality, anti-feedant effect or growth inhibition) at 200 ppm [2] | percent control (mortality or growth inhibition) at 200 ppm [3] | percent control (mortality, anti-feedant effect or growth inhibition) at 200 ppm [5]

Reference: patent US20230002359A1, “PESTICIDALLY ACTIVE FUSED BICYCLIC HETEROAROMATIC COMPOUNDS” (priority 2019, published 2023)
